In US7074742B2, “Pyridinyl amides and imides for use as fungicides” (E. I. du Pont de Nemours and Company, priority 2000, dated 2006):
Marks after values point to notes of the source that are not given here.

Legend:
Assay type in all cases: in vivo
[1] = system: Plasmopara viticola; test: TEST E: preventive spray on grape seedlings, grape downy mildew, disease rating; settings: 100 = 100% disease control, 0 = no control, concentration not marked in table
[2] = system: Plasmopara viticola; test: TEST G: curative spray on inoculated grape seedlings, grape downy mildew, disease rating; settings: for curative utility: curative (post-infection) use, especially for grape downy mildew, statement in words; for Test G disease control rating (grape downy mildew, curative): curative spray on inoculated grape seedlings
[3] = system: Pyricularia oryzae; settings: preventive spray on rice seedlings; 100 = 100% disease control, 0 = no control; concentration not marked in table
[4] = system: Phytophthora infestans; settings: preventive spray on tomato seedlings; 100 = 100% disease control, 0 = no control; concentration not marked in table
[5] = system: Erysiphe graminis f. sp. tritici; test: TEST A: preventive spray on wheat seedlings, wheat powdery mildew, disease rating; settings: 100 = 100% disease control, 0 = no control relative to controls, concentration not marked in table
[6] = system: Puccinia recondita; test: TEST B: preventive spray on wheat seedlings, wheat leaf rust, disease rating; settings: 100 = 100% disease control, 0 = no control, concentration not marked in table
[7] = system: Phytophthora infestans; settings: curative spray; 100 ppm on potato seedlings
[8] = concentration not marked in table

Compound	Test E disease control rating (grape downy mildew) [1]	curative utility [2]	Test G disease control rating (grape downy mildew, curative) [2, 8]	Test C disease control rating (rice blast) [3]	Test D disease control rating (potato and tomato late blight) [4]	Test A disease control rating (wheat powdery mildew) [5]	Test B disease control rating (wheat leaf rust) [6]	Test G disease control rating (grape downy mildew, curative) ([2]; 100 ppm)	Test F disease control rating (late blight, curative) [7]
CC(NC(=O)c1c(Cl)ccnc1Cl)c1ncc(Cl)cc1Cl (racemic) [Compound 36]	100%	significant curative utility	100%	0%	100%	0%	38%	–	–
CC(NC(=O)c1c(Cl)ccnc1Cl)c1ncc(Br)cc1Cl (racemic) [Compound 37]	100%	significant curative utility	100%	0%	100%	0%	19%	–	–
O=C(NCc1ncc(C(F)(F)F)cc1Cl)c1c(Cl)ccnc1Cl [Compound 28]	100%	significant curative utility	–	0%	100%	–	–	37* %	97# %
